Molecular target: T1, human HSD17B13 (Homo sapiens, UniProt Q7Z5P4)
T1 construct: human HSD17B13 (residues 2-300, NP_835236.2); 10x His (N); TEV protease site (N); made in house; host or cells: Sf9 (baculovirus)
T1 sequence (Q7Z5P4 2-300): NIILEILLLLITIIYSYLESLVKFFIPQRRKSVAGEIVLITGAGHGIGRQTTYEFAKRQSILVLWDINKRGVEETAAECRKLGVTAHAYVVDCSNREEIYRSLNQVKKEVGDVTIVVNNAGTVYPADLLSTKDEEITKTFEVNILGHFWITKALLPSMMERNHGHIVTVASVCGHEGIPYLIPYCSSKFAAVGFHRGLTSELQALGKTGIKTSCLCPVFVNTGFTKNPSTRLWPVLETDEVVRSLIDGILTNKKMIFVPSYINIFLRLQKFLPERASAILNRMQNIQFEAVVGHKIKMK
Assay: HSD17B13 purified protein biochemical enzyme activity assay, NAD(P)H-Glo luciferase readout
Settings: IC 50 mean, Supplementary Figure 8 source data, unit inferred, uM printed
Procedure: HSD17B13 enzyme inhibition potency of test compounds was determined using a purified protein biochemical enzyme activity assay, using NAD(P)H-Glo luciferase readout (Promega). HSD17B13 enzyme uses the oxidized form of nicotinamide adenine dinucleotide (NAD^+) as a cofactor during metabolism of β-estradiol (substrate) to […] (product), while converting NAD^+ to the reduced form (NADH). The Promega NAD(P)H-Glo™ assay is a homogeneous bioluminescent assay that generates a light signal from biochemical reactions that contain NADH (or nicotinamide adenine dinucleotide phosphate, NADPH). In the presence of NADH (or NADPH), the enzyme Reductase reduces a proluciferin reductase substrate to form luciferin. Luciferin then is quantified using Ultra-Glo™ Recombinant Luciferase (rLuciferase), and the light signal produced is proportional to the amount of NAD(P)H in the sample. […] The reaction was initiated by the addition of 2 µL/well purified HSD17B13 protein (30 nM FAC in assay buffer). […] Detection reagent was incubated in the dark for 1 hour at room temperature before plates were read on the Envision plate reader (Perkin Elmer) using a luminescent protocol. Data expressed as relative luminescent units (RLUs) were then normalized to control wells using Activity Base (IDBS). […]

## O=C(NC[C@]1(O)CC[C@H](COc2ccccc2F)CC1)c1ccc(O)c(F)c1 [Compound 1]
  IC50: 0.18 µM
